Assay results as given in ChEMBL document CHEMBL2321848, “Optimization of benzyloxazoles as non-nucleoside inhibitors of HIV-1 reverse transcriptase to enhance Y181C potency” (Bioorg Med Chem Lett, 2013).

Tests used:
[1] = system: Human immunodeficiency virus 1; test: Antiviral activity against multidrug resistant HIV1 IIIB containing reverse transcriptase K103N and Y181C mutation infected in human MT2 cells assessed as cytoprotection from infection by MTT colorimetric method; format: functional, organism-based
[2] = system: Human immunodeficiency virus 1; test: Antiviral activity against multidrug resistant HIV1 IIIB containing reverse transcriptase Y181C mutation infected in human MT2 cells assessed as cytoprotection from infection by MTT colorimetric method; format: functional, organism-based
[3] = system: MT2; test: (§1) Cytotoxicity in human MT2 cells assessed as inhibition of cell growth; format: cell-based; details: mt2
[4] = system: Human immunodeficiency virus 1; test: microbe, parasite or virus in culture; details: Human immunodeficiency virus 1, IIIB, MT2
Description: Antiviral activity against multidrug resistant HIV1 IIIB containing reverse transcriptase infected in human MT2 cells assessed as cytoprotection from infection by MTT colorimetric method

[5] = Octanol-water partition coefficient, log P of the compound; format: physicochemical
[6] = as §1; format: cell-based; details: MT2 cells
[7] = Human immunodeficiency virus 1, IIIB, MT2, read-out: EC50

Which EC50 ([1]; mt2) does the source give for `N#Cc1ccc(Nc2ncc(Cc3c(F)cccc3F)o2)cc1` here?
Its EC50 is “Not Active”.

Which EC50 [2, 7] does the source give for `N#Cc1ccc(Nc2ncc(Cc3c(F)cc(F)cc3F)o2)cc1Cl` here?
The EC50 was 910 nM.

What about the EC50 ([1]; mt2) of the same compound?
The EC50 was “Not Active”.

What about the CC50 [3] of the same compound?
Its CC50 is 7 µM.

And the EC50 [4]?
Its EC50 is 9.1 nM.

Which EC50 [2, 7] does the source give for `Cc1cc(F)c(Cc2cnc(Nc3ccc(C#N)c(Cl)c3)o2)c(F)c1` here?
The EC50 was 210 nM.

And the EC50 [1, 7]?
The EC50 was 7200 nM.

What about the CC50 [3] of the same compound?
The CC50 was 31 µM.

What about the EC50 [4] of the same compound?
Its EC50 is 11 nM.

Which results are given for `CCc1cc(F)c(Cc2cnc(Nc3ccc(C#N)c(Cl)c3)o2)c(F)c1`?
EC50 [2, 7]: 6.9 nM; EC50 [1, 7]: 210 nM; CC50 [3]: 10 µM; EC50 [4]: 1.3 nM

For `CC(C)c1cc(F)c(Cc2cnc(Nc3ccc(C#N)c(Cl)c3)o2)c(F)c1`, which EC50 [2, 7] is on record?
Its EC50 is 7.2 nM.

What about the EC50 [1, 7] of the same compound?
Its EC50 is 120 nM.

What about the logP [5] of the same compound?
The logP was 3.7.

And the CC50 [3]?
Its CC50 is 5 µM.

And the EC50 [4]?
Its EC50 is 5.2 nM.

Which EC50 [2, 7] does the source give for `N#Cc1ccc(Nc2ncc(Cc3c(F)cc(C4CC4)cc3F)o2)cc1Cl` here?
Its EC50 is 1500 nM.

What about the EC50 [1, 7] of the same compound?
The EC50 was 10700 nM.

And the logP [5]?
The logP was 3.3.

What about the CC50 [3] of the same compound?
Its CC50 is 65 µM.

What about the EC50 [4] of the same compound?
The EC50 was 24 nM.

Which EC50 [2, 7] does the source give for `N#Cc1ccc(Nc2ncc(Cc3c(F)cc(CC4CC4)cc3F)o2)cc1Cl` here?
Its EC50 is 1200 nM.

What about the EC50 [1, 7] of the same compound?
The EC50 was 15000 nM.

What about the CC50 [3] of the same compound?
The CC50 was 29 µM.

And the EC50 [4]?
Its EC50 is 68 nM.

With `CCOc1cc(F)c(Cc2cnc(Nc3ccc(C#N)c(Cl)c3)o2)c(F)c1` as the compound, how does the EC50 [2, 7] read?
Its EC50 is 48 nM.

What about the EC50 [1, 7] of the same compound?
Its EC50 is 750 nM.

What about the CC50 [3] of the same compound?
The CC50 was 15 µM.

And the EC50 [4]?
Its EC50 is 28 nM.

With `COCc1cc(F)c(Cc2cnc(Nc3ccc(C#N)c(Cl)c3)o2)c(F)c1` as the compound, how does the EC50 [2, 7] read?
Its EC50 is 690 nM.

And the EC50 [1, 7]?
The EC50 was 6300 nM.

What about the CC50 [3] of the same compound?
Its CC50 is 15 µM.

What about the EC50 [4] of the same compound?
Its EC50 is 3.6 nM.

What does the source list for `CCc1cc(F)c(Cc2cnc(Nc3ccc(Oc4cccnc4)c(Cl)c3)o2)c(F)c1`?
EC50 [2, 7]: 60 nM; EC50 [1, 7]: 800 nM; CC50 [3]: 5 µM; EC50 [4]: 5 nM

What does the source list for `CC(C)(C)c1cc(Cl)c(Cc2cnc(Nc3ccc(C#N)c(Cl)c3)o2)c(Cl)c1`?
EC50 ([2]; mt2): Not Active; EC50 ([1]; mt2): Not Active; CC50 [3]: 6 µM; EC50 [4]: 1300 nM

For `CCC(C)c1cc(F)c(Cc2cnc(Nc3ccc(C#N)c(Cl)c3)o2)c(F)c1` (racemic), which EC50 [2, 7] is on record?
Its EC50 is 150 nM.

And the EC50 [1, 7]?
Its EC50 is 2800 nM.

What about the CC50 [3] of the same compound?
The CC50 was 40 µM.

And the EC50 [4]?
Its EC50 is 120 nM.

Which EC50 ([2]; mt2) does the source give for `Cc1ccnc2c1NC(=O)c1cccnc1N2C1CC1` [NEVIRAPINE] here?
Its EC50 is “Not Active”.

What about the EC50 ([1]; mt2) of the same compound?
Its EC50 is “Not Active”.

And the CC50 [6]?
Its CC50 is greater than 100 µM.
